Read-outs that look alike come from different tables or passages of the source.
Tests used:
[1] = test system: cardiovascular effects; conditions: rats, up to 25 mg/kg ref 9; cited from earlier work
[2] = target: T1, BCRP (Homo sapiens, UniProt Q9UNQ0); assay: Transporter mediated assay (substrate/inhibitor), MDCK-II cells; assay type: in vitro ADME
T1 construct: expressed in transfected cells; host or cells: MDCK-II cells
T1 sequence (Q9UNQ0 1-655): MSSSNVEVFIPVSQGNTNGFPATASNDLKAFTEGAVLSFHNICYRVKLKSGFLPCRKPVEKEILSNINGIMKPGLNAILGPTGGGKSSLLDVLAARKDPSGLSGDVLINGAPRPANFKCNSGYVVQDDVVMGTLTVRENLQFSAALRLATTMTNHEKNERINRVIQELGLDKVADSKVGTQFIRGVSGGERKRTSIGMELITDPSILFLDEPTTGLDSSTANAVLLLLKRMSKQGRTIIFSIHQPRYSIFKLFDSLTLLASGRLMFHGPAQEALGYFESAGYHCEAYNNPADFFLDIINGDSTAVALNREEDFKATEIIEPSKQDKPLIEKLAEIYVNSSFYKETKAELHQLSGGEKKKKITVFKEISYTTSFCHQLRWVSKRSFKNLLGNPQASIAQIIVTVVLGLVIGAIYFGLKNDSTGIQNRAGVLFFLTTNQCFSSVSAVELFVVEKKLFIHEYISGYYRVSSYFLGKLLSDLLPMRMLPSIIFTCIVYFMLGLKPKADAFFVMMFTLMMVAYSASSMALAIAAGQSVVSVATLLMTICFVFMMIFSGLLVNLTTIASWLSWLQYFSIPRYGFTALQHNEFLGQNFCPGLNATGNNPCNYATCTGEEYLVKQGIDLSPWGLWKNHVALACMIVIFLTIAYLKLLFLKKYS
Description: The MDCK-II cells were treated to express the transporter of interest.
For BCRP and P-gp, the apparent permeability Papp and Efflux Ratio (ER) were calculated [16]. Net basal (B) to apical (A) flux (B → A) of the substrate transport (pmol/min/cm^2) by BCRP or P-gp was calculated by subtracting A → B flux from B → A flux.

[3] = parameters: method as in PMID 31526003; conditions: rats, 10 mg/kg oral dose ref 8; cited from earlier work
[4] = test system: HepG2 cells; assay: Mitochondrial toxicity (MT) assay panel; assay type: cell-based
Description: The assay results were presented as % cell viability. […] After each incubation, the cells were harvested and lysed to test the MT assay panel. The Zalcitabine (positive control) was also included in this assay (Fig 3 in S1 File). The levels of Mitochondrial Oxidative Phosphorylation (OXPHOS) complex 1 (NADH dehydrogenase; ab178011, lot #GR 3339973–1), complex 3 (CytC reductase; ab124537, lot #GR3276896-3), complex 4 (CytC Oxidase; ab179880, lot #GR3273194-1), and complex 5 (ATP synthase; ab124539, lot #GR3267780-4) in the cell lysates were determined using respective indirect ELISA as per manufacturer’s instructions. The total ATP content of the cell lysates was determined using an ATP assay kit (ab83355, lot #GR3314128-2, Abcam, Cambridge, MA). The Caspase 3 content of the cell lysates was determined using the Caspase-3 assay kit (ab39401, lot #GR3322733-1, Abcam, Cambridge, MA). In addition, the total glutathione content was determined using the total glutathione (GSSG/GSH) assay kit (STA-312, lot #09100263, Oxiselect™, San Diego, CA). Using an Oxiselect™ ROS/RNS assay kit (STA-347, lot #7081343, Cell Biolabs Inc. San Diego, CA), the ROS/RNS content of the cell lysates was determined by fluorescence assay.

[5] = test system: 10 enzyme targets; assay: Enzyme and uptake assays; assay type: biochemical; conditions: 10 μM
Description: The purpose of this study was to provide a first step in preliminary safety assessments by providing early identification of potential off-target interactions for the optimization of safety margins. This study was conducted by Eurofins Cerep (France) and Eurofins Discovery (St. Charles, MO). R-VK4-116 was tested in enzyme and uptake assay with 10 enzyme targets (Figs 4 and 5 in S1 File), and cellular and nuclear receptor functional assays with 24 receptor targets (Figs 5 and 6 in S1 File). Compound enzyme inhibition effect was calculated as a % inhibition of control enzyme activity. The cellular agonist effect was calculated as a % of the control response to a known reference agonist for each target, and the cellular antagonist effect was calculated as a % inhibition of the control reference agonist response for each target.

[6] = test system: CYP1A2 mRNA; assay: CYP induction, mRNA, primary cultured human hepatocytes; assay type: in vitro ADME; conditions: read-out: CYP1A2 mRNA Fold Induction (fold of vehicle control)
Description: Rifampicin as a positive control and solvent (0.1% DMSO) vehicle control were also included. The acceptance criteria for CYP induction was ≥ 2-fold induction for significant CYP activity, while the acceptance criteria for CYP mRNA was ≥ 4-fold for significant CYP induction.

[7] = test system: CYP1A2, CYP2B6, CYP2C8, CYP2C9, CYP2C19; assay: CYP phenotyping, other recombinant CYP isoforms; assay type: in vitro ADME; conditions: 1 μM, up to 120 min
Description: CYP phenotyping involved the identification of CYP isoforms, which involved in the metabolism of R-VK4-116 using recombinant CYP1A2, CYP2B6, CYP2C8, CYP2C9, CYP2C19, CYP2D6, and CYP3A4 (XenoTech, LLC, Kansas City, KS), followed by determination of the Km and Vmax for the metabolites formed by the major CYP isoforms. […] In addition, R-VK4-116 was also incubated with all components in the absence of NADPH. […] Following brief vortexing and centrifugation, 50 μl of supernatant was mixed with 450 μl of 25:75:0.2 acetonitrile/water/formic acid for analysis by LC-MS/MS to determine the remaining R-VK4-116 at each time point based on peak area ratio (PAR) of R-VK4-116 to IS. As a positive control, the known substrate of each individual CYP isoform (phenacetin for CYP1A2, bupropion for CYP2B6, paclitaxel for CYP2C8, diclofenac for CYP2C9, diazepam for CYP2C19, bufuralol for CYP2D6, and testosterone for CYP3A4) was also incubated.

[8] = test system: 403 non-mutant human kinases; conditions: screening concentration 1 µM, S-score with % Control <35
Description: Briefly, E. coli host derived from the BL21 strain were grown to log-phase and infected with kinase-tagged T7 phage and incubated with shaking at 32°C until lysis. The lysates were centrifuged and filtered to remove cell debris. The remaining kinases were produced in HEK-293 cells and subsequently tagged with DNA for qPCR detection. Streptavidin-coated magnetic beads were treated with biotinylated small molecule ligands to generate affinity resins for kinase assays. The liganded beads were blocked with excess biotin and washed to remove unbound ligand and to reduce non-specific phage binding. […] Selectivity Score (S-score) was a quantitative measure of compound selectivity. […] The binding constants (Kds) were also determined with a standard dose-response curve using the Hill equation and Levenberg-Marquardt algorithm [24, 25].

[9] = HepG2, 0.1, 1 and 10 μM, 7- and 14-day

## CCc1cc(Cl)c(OC)c(N2CCN(CC(O)CCNC(=O)c3cc4ccccc4[nH]3)CC2)c1 (centres unmarked) [R-VK4-116, N-(4-(4-(3-chloro-5-ethyl-2-methoxyphenyl)piperazin-1-yl)-3-hydroxybutyl)-1H-indole-2-carboxamide]
[1]
  potentiation of the cardiovascular effects of cocaine or oxycodone: did not potentiate
[2]; BCRP, substrate test, 1 µM
  Papp A→B at 1 µM: < 0.2 ×10⁻⁶ cm/s
  Papp B→A at 1 µM: < 0.1 ×10⁻⁶ cm/s
[2]; probe prazosin 2 μM
  inhibition at 10 µM: 54 ± 1.46%
[3]
  Cmax: 454 nM
[4]; [9]
  OXPHOS complex 1, 3, 4, and 5 or total ATP levels: No significant decrease
  caspase 3, or total glutathione levels: no significant increase
[4]; HepG2, 7-days, all three concentrations (0.1, 1, 10 μM)
  increase in ROS/RNS levels compared with the solvent control: 10–35%
[5]
  enzyme inhibition effects or uptake: did not show any enzyme inhibition effects or uptake
[6]; Lot 336, 0.01 μM
  fold induction at 48 h, 0.01 µM: 1.1
[6]; Lot 336, 0.1 μM
  fold induction at 48 h, 0.1 µM: 1.2
[6]; Lot 336, 1 μM
  fold induction at 48 h, 1 µM: 1.6
[6]; Lot 336, 3 μM
  fold induction at 48 h, 3 µM: 1.9
[6]; Lot 336, 5 μM
  fold induction at 48 h, 5 µM: 1.8
[6]; Lot 336, 10 μM
  fold induction at 48 h, 10 µM: 1.9
[6]; Lot 348B, 0.01 μM
  fold induction at 48 h, 0.01 µM: 1.1
[6]; Lot 348B, 0.1 μM
  fold induction at 48 h, 0.1 µM: 1.4
[6]; Lot 348B, 1 μM
  fold induction at 48 h, 1 µM: 1.3
[6]; Lot 348B, 3 μM
  fold induction at 48 h, 3 µM: 1.5
[6]; Lot 348B, 5 μM
  fold induction at 48 h, 5 µM: 1.6
[6]; Lot 348B, 10 μM
  fold induction at 48 h, 10 µM: 1.5
[6]; Lot 399, 0.01 μM
  fold induction at 48 h, 0.01 µM: 1.6
[6]; Lot 399, 0.1 μM
  fold induction at 48 h, 0.1 µM: 1.8
[6]; Lot 399, 1 μM
  fold induction at 48 h, 1 µM: 1.7
[6]; Lot 399, 3 μM
  fold induction at 48 h, 3 µM: 1.9
[6]; Lot 399, 5 μM
  fold induction at 48 h, 5 µM: 1.6
[6]; Lot 399, 10 μM
  fold induction at 48 h, 10 µM: 1.6
[7]
  metabolism by other CYP isoforms: Minimal to no metabolism
[8]
  Selectivity score: 0.012
